# Source: patent US10300042B2, “Apremilast for the treatment of a liver disease or a liver function abnormality” (Celgene Corporation, priority 2014, dated 2019)
# Legend:
# Alanine Aminotransferase [1] = experiment: ALT levels in PSA-005 (psoriatic arthritis); type: in vivo, human; conditions: for ALT High to Normal, percent of patients / ALT Net Benefit / ALT Normal to High, percent of patients: end of treatment (week 24)
# Description: Apremilast was studied in a Phase 3 trial in patients with active psoriatic arthritis who have not been previously treated with disease-modifying antirheumatic drugs. […] The improvement in mild baseline liver function test abnormalities has been observed with apremilast daily use without any prescribed changes in physical activity, social or dietary habits. […] See Tables 25 to 34 from PSA-005 studies.
# [2] = system: Aspartate Aminotransferase; experiment: AST levels in RA-002 (rheumatoid arthritis); type: in vivo, human; conditions: for AST High to Normal, percent of patients / AST Net Benefit / AST Normal to High, percent of patients: end of treatment (week 16); for AST High, % of patients / AST Low, % of patients / AST Normal, % of patients: Week 16
# Description: The improvement in mild baseline liver function test abnormalities has been observed with apremilast daily use without any prescribed changes in physical activity, social or dietary habits. During the course of the study, there was observed a higher proportion of subjects in the 30 mg BID apremilast treatment group with normal LFTs at subsequent placebo-controlled study visits at week 16. See Tables 17 to 24 from RA-002 studies.
# Alanine Aminotransferase [3] = experiment: ALT levels in PSOR-008 and PSOR-009 (plaque psoriasis); type: in vivo, human; conditions: for ALT High, % of patients / ALT Low, % of patients / ALT Normal, % of patients: Week 16, 30 mg BID
# Description: Apremilast was studied in Phase 3 trials in patients with moderate to severe plaque psoriasis. […] The improvement in mild baseline liver function test abnormalities has been observed with apremilast daily use without any prescribed changes in physical activity, social or dietary habits. During the course of the study, there was observed a higher proportion of subjects in the apremilast treatment group (30 mg BID) with normal LFTs (i.e. normal levels of ALT and AST) at subsequent placebo-controlled study visits at week 16. See Tables 11 to 16 from PSOR-008 and PSOR-009 studies.
# PDE6 = PDE6 enzyme assay; type: biochemical; conditions: at 10 μM
# Description: PDE1, 2, 3 and 5 enzyme assays were prepared as described by Hidaka and Asano. Biochem. Biophys. Acta., 1976, 429:485; see also Nicholsen et al., Trends Pharmaco. Sci., 1991, 12:19. The PDE6 enzyme assay was prepared according to Baehr et al., J. Biol. Chem., 1979, 254:11669 and Gillespie et al., Mol. Pharm., 1989, 36: 773. The PDE7 enzyme assay was prepared according to Bloom and Beavo. Proc. Natl. Acad. Sci. USA, 1996, 93:14188-92.
# [4] = Baseline High, Week 24, 20 mg BID
# [5] = Baseline High, Week 24, 30 mg BID
# [6] = Baseline Normal, Week 24, 20 mg BID
# [7] = Baseline Normal, Week 24, 30 mg BID
# [8] = Baseline Total, Week 24, 20 mg BID
# [9] = Baseline Total, Week 24, 30 mg BID
# [10] = 30 BID, end of treatment (week 16)
smiles,measurement,setting,value
"CCOc1cc([C@@H](CS(C)(=O)=O)N2C(=O)c3cccc(NC(C)=O)c3C2=O)ccc1OC [Apremilast, (+)-2-[1-(3-ethoxy-4-methoxyphenyl)-2-methylsulfonylethyl]-4-acetylaminoisoindoline-1,3-dione]","ALT High to Normal, percent of patients",Alanine Aminotransferase [1]; 20 BID,87.5%
same,ALT Net Benefit,Alanine Aminotransferase [1]; 20 BID,53.8%
same,"ALT Normal to High, percent of patients",Alanine Aminotransferase [1]; 20 BID,3.3%
same,"ALT High to Normal, percent of patients",Alanine Aminotransferase [1]; 30 BID,72.7%
same,ALT Net Benefit,Alanine Aminotransferase [1]; 30 BID,44.4%
same,"ALT Normal to High, percent of patients",Alanine Aminotransferase [1]; 30 BID,4.9%
same,"ALT High to Normal, Difference between Placebo and APR 30 BID","Alanine Aminotransferase [1]; 30 BID, week 24",22.7%
same,"ALT Net Benefit, Difference between Placebo and APR 30 BID","Alanine Aminotransferase [1]; 30 BID, week 24",24.4%
same,"ALT Normal to High, Difference between Placebo and APR 30 BID","Alanine Aminotransferase [1]; 30 BID, week 24",−1.0%
same,"ALT High to Normal, Difference between Placebo and APR 30 BID","Alanine Aminotransferase [1]; 30 BID, week 24, listed as APR",22.7%
same,"ALT High, % of patients",Alanine Aminotransferase [1]; [4],12.5%
same,"ALT Low, % of patients",Alanine Aminotransferase [1]; [4],0.0%
same,"ALT Normal, % of patients",Alanine Aminotransferase [1]; [4],87.5%
same,"ALT High, % of patients",Alanine Aminotransferase [1]; [5],27.3%
same,"ALT Low, % of patients",Alanine Aminotransferase [1]; [5],0.0%
same,"ALT Normal, % of patients",Alanine Aminotransferase [1]; [5],72.7%
same,"ALT High, % of patients",Alanine Aminotransferase [1]; [6],3.3%
same,"ALT Low, % of patients",Alanine Aminotransferase [1]; [6],0.0%
same,"ALT Normal, % of patients",Alanine Aminotransferase [1]; [6],96.7%
same,"ALT High, % of patients",Alanine Aminotransferase [1]; [7],4.9%
same,"ALT Low, % of patients",Alanine Aminotransferase [1]; [7],0.0%
same,"ALT Normal, % of patients",Alanine Aminotransferase [1]; [7],95.1%
same,"ALT High, % of patients",Alanine Aminotransferase [1]; [8],3.8%
same,"ALT Low, % of patients",Alanine Aminotransferase [1]; [8],0.0%
same,"ALT Normal, % of patients",Alanine Aminotransferase [1]; [8],96.2%
same,"ALT High, % of patients",Alanine Aminotransferase [1]; [9],6.5%
same,"ALT Low, % of patients",Alanine Aminotransferase [1]; [9],0.0%
same,"ALT Normal, % of patients",Alanine Aminotransferase [1]; [9],93.5%
same,Baseline High ALT: High %,"Alanine Aminotransferase [1]; Week 4, 20 mg BID",30.0%
same,Baseline High ALT: Normal %,"Alanine Aminotransferase [1]; Week 4, 20 mg BID",70.0%
same,Baseline High ALT: High %,"Alanine Aminotransferase [1]; Week 4, 30 mg BID",72.7%
same,Baseline High ALT: Normal %,"Alanine Aminotransferase [1]; Week 4, 30 mg BID",27.3%
same,Baseline High ALT: High %,"Alanine Aminotransferase [1]; Week 16, 20 mg BID",12.5%
same,Baseline High ALT: Normal %,"Alanine Aminotransferase [1]; Week 16, 20 mg BID",87.5%
same,Baseline High ALT: High %,"Alanine Aminotransferase [1]; Week 16, 30 mg BID",36.4%
same,Baseline High ALT: Normal %,"Alanine Aminotransferase [1]; Week 16, 30 mg BID",63.6%
same,Baseline High ALT: High %,"Alanine Aminotransferase [1]; Week 24, 20 mg BID",12.5%
same,Baseline High ALT: Normal %,"Alanine Aminotransferase [1]; Week 24, 20 mg BID",87.5%
same,Baseline High ALT: High %,"Alanine Aminotransferase [1]; Week 24, 30 mg BID",27.3%
same,Baseline High ALT: Normal %,"Alanine Aminotransferase [1]; Week 24, 30 mg BID",72.7%
same,"AST High to Normal, percent of patients",[2]; 20 BID,50.0%
same,AST Net Benefit,[2]; 20 BID,33.3%
same,"AST Normal to High, percent of patients",[2]; 20 BID,3.0%
same,"AST High to Normal, percent of patients",[2]; 30 BID,100.0%
same,AST Net Benefit,[2]; 30 BID,50.0%
same,"AST Normal to High, percent of patients",[2]; 30 BID,4.7%
same,"AST High to Normal, Difference between Placebo and APR 30 BID","[2]; 30 BID, week 16",50%
same,"AST Net Benefit, Difference between Placebo and APR 30 BID","[2]; 30 BID, week 16",16.7%
same,"AST Normal to High, Difference between Placebo and APR 30 BID","[2]; 30 BID, week 16",1.7%
same,"AST High to Normal, Difference between Placebo and APR 30 BID","[2]; 30 BID, week 16, listed as APR",50.0%
same,"AST High, % of patients","[2]; Baseline High, 20 mg BID",50.0%
same,"AST Low, % of patients","[2]; Baseline High, 20 mg BID",0.0%
same,"AST Normal, % of patients","[2]; Baseline High, 20 mg BID",50.0%
same,"AST High, % of patients","[2]; Baseline High, 30 mg BID",0.0%
same,"AST Low, % of patients","[2]; Baseline High, 30 mg BID",0.0%
same,"AST Normal, % of patients","[2]; Baseline High, 30 mg BID",100.0%
same,"AST High, % of patients","[2]; Baseline Normal, 20 mg BID",3.0%
same,"AST Low, % of patients","[2]; Baseline Normal, 20 mg BID",0.0%
same,"AST Normal, % of patients","[2]; Baseline Normal, 20 mg BID",97.0%
same,"AST High, % of patients","[2]; Baseline Normal, 30 mg BID",4.7%
same,"AST Low, % of patients","[2]; Baseline Normal, 30 mg BID",0.0%
same,"AST Normal, % of patients","[2]; Baseline Normal, 30 mg BID",95.3%
same,"AST High, % of patients","[2]; Baseline Total, 20 mg BID",5.7%
same,"AST Low, % of patients","[2]; Baseline Total, 20 mg BID",0.0%
same,"AST Normal, % of patients","[2]; Baseline Total, 20 mg BID",94.3%
same,"AST High, % of patients","[2]; Baseline Total, 30 mg BID",4.5%
same,"AST Low, % of patients","[2]; Baseline Total, 30 mg BID",0.0%
same,"AST Normal, % of patients","[2]; Baseline Total, 30 mg BID",95.5%
same,"ALT High to Normal, percent of patients",Alanine Aminotransferase [3]; [10],57.1%
same,ALT Net Benefit,Alanine Aminotransferase [3]; [10],53.7%
same,"ALT Normal to High, percent of patients",Alanine Aminotransferase [3]; [10],3.7%
same,"ALT High to Normal, Difference (APR 30 BID vs Placebo)","Alanine Aminotransferase [3]; 30 BID, week 16",3.1%
same,"ALT Net Benefit, Difference (APR 30 BID vs Placebo)","Alanine Aminotransferase [3]; 30 BID, week 16",17.9%
same,"ALT Normal to High, Difference (APR 30 BID vs Placebo)","Alanine Aminotransferase [3]; 30 BID, week 16",−2.1%
same,"ALT High to Normal, Difference (APR 30 BID vs Placebo)","Alanine Aminotransferase [3]; 30 BID, week 16, listed as APR",3.1%
same,"ALT High, % of patients",Alanine Aminotransferase [3]; Baseline High,42.9%
same,"ALT Low, % of patients",Alanine Aminotransferase [3]; Baseline High,0.0%
same,"ALT Normal, % of patients",Alanine Aminotransferase [3]; Baseline High,57.1%
same,"ALT High, % of patients",Alanine Aminotransferase [3]; Baseline Normal,3.7%
same,"ALT Low, % of patients",Alanine Aminotransferase [3]; Baseline Normal,0.0%
same,"ALT Normal, % of patients",Alanine Aminotransferase [3]; Baseline Normal,96.3%
same,"ALT High, % of patients",Alanine Aminotransferase [3]; Baseline Total,7.8%
same,"ALT Low, % of patients",Alanine Aminotransferase [3]; Baseline Total,0.0%
same,"ALT Normal, % of patients",Alanine Aminotransferase [3]; Baseline Total,92.2%
same,% inhibition PDE6,PDE6,−6%
